Molecules are shown by their SMILES.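 Five compound concentrations were applied to cells in 96-well plates for 48 hours; endpoints were derived by simple linear interpolation of the resulting dose-response curve. At the GI50, growth is halved. TGI marks complete inhibition of growth.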

Among the test systems are MDA-MB-435; OVCAR-5 ovarian; HCC-2998 colon; IGROV1 ovarian; RPMI-8226 leukemia; HL-60(TB) leukemia; UACC-62 melanoma; SF-295 CNS; UACC-257 melanoma; RXF 393 renal.
Holding throughout (test): inhibition of tumour cell growth, NCI panel, 48 h

As to `[N-]=[N+]=NCCCn1c2c(c3ccc([N+](=O)[O-])cc3c1=O)C(=O)c1cc(F)ccc1-2`, the GI50 is 4.15 µM in the experiment with MDA-MB-435; 14.4 µM with OVCAR-5 ovarian; 14.5 µM with HCC-2998 colon; 2.3 µM with IGROV1 ovarian; 0.237 µM in the experiment with RPMI-8226 leukemia; 0.202 µM in the experiment with HL-60(TB) leukemia. Also, the GI50 with UACC-62 melanoma was 0.523 µM; in the experiment on SF-295 CNS it was 0.338 µM; with UACC-257 melanoma, 10.3 µM; with RXF 393 renal, 4.32 µM. Further, the TGI in the experiment on MDA-MB-435 was above 86.4 µM; in the experiment with OVCAR-5 ovarian it was above 100 µM; with HCC-2998 colon, above 100 µM; in the experiment with IGROV1 ovarian, above 30.2 µM; in the experiment with RPMI-8226 leukemia it was 1.28 µM; in the experiment with HL-60(TB) leukemia it was 1.64 µM. The TGI is 3.55 µM with UACC-62 melanoma, 9.94 µM with SF-295 CNS, above 100 µM in the experiment on UACC-257 melanoma and 54.6 µM in the experiment on RXF 393 renal.

In the case of `O=C(N/N=C/c1ccc(O)cc1O)c1cccc(Nc2ccnc(C(F)(F)F)c2)c1`, the GI50 was 0.861 µM in the experiment with MDA-MB-435; 6.28 µM in the experiment with OVCAR-5 ovarian; 0.778 µM in the experiment on HCC-2998 colon; 1.28 µM with IGROV1 ovarian; 3.55 µM in the experiment with RPMI-8226 leukemia; 0.472 µM with HL-60(TB) leukemia. Besides, the GI50 in the experiment with UACC-62 melanoma was 0.33 µM; with SF-295 CNS, 1.88 µM; in the experiment on UACC-257 melanoma, 3.06 µM; in the experiment with RXF 393 renal, 2.48 µM. Besides, the TGI in the experiment on MDA-MB-435 was found to be 20.8 µM; in the experiment with OVCAR-5 ovarian it was 66.8 µM; in the experiment on HCC-2998 colon, 18.1 µM; in the experiment with IGROV1 ovarian it was 27.7 µM; in the experiment with RPMI-8226 leukemia, 14.9 µM; in the experiment on HL-60(TB) leukemia it was 2.98 µM. Moreover, the TGI was determined as 7.37 µM in the experiment with UACC-62 melanoma, 45.8 µM with SF-295 CNS, 12.3 µM in the experiment with UACC-257 melanoma and 17.4 µM in the experiment on RXF 393 renal.

As to `Oc1ccc(C2c3ccccc3Oc3ccccc32)c2cccnc12`, the GI50 in the experiment on MDA-MB-435 was 3.07 µM; with HCC-2998 colon, 1.89 µM; with IGROV1 ovarian it was 1.62 µM; in the experiment on RPMI-8226 leukemia, 1.7 µM; in the experiment with HL-60(TB) leukemia, 1.94 µM; with UACC-62 melanoma it was 1.88 µM. Also, the GI50 in the experiment on SF-295 CNS is 0.499 µM; in the experiment on UACC-257 melanoma it was 2.76 µM; in the experiment on RXF 393 renal it was 1.68 µM. Also, the TGI in the experiment with MDA-MB-435 was above 100 µM; with HCC-2998 colon, above 100 µM; with IGROV1 ovarian, above 100 µM; with RPMI-8226 leukemia, above 100 µM; in the experiment on HL-60(TB) leukemia it was above 100 µM; in the experiment on UACC-62 melanoma it was 8.07 µM. Further, the results for the TGI in the experiment on SF-295 CNS, in the experiment on UACC-257 melanoma and in the experiment on RXF 393 renal were above 100 µM, above 100 µM and 7.1 µM, respectively.

For the compound `OCCNc1nc(Nc2ccc(Cl)c(Cl)c2)nc2ccccc12`, the GI50 was 7.1 µM in the experiment with MDA-MB-435; 2.21 µM in the experiment on OVCAR-5 ovarian; 2.52 µM with HCC-2998 colon; 5.14 µM in the experiment on IGROV1 ovarian; 3.74 µM in the experiment on RPMI-8226 leukemia; 8.69 µM in the experiment on HL-60(TB) leukemia. In addition, the GI50 was 10.9 µM with UACC-62 melanoma, 6.1 µM in the experiment on SF-295 CNS, 11.1 µM with UACC-257 melanoma and 4.45 µM in the experiment on RXF 393 renal. Further, the TGI in the experiment on MDA-MB-435 was determined as 20.2 µM; in the experiment on OVCAR-5 ovarian it was 6.22 µM; in the experiment on HCC-2998 colon it was 6.85 µM; in the experiment with IGROV1 ovarian it was 20 µM; with RPMI-8226 leukemia, 22.1 µM; with HL-60(TB) leukemia it was 33.4 µM. In addition, the TGI is 23.5 µM in the experiment with UACC-62 melanoma, 20.2 µM in the experiment with SF-295 CNS, 23.1 µM in the experiment on UACC-257 melanoma and 18.4 µM in the experiment on RXF 393 renal.

For the compound `C/C(=C\c1cc(C(F)(F)F)n(-c2ccc(N)cc2)n1)[C@@H]1C[C@@H]2O[C@]2(C)CCC[C@H](C)[C@H](O)[C@@H](C)C(=O)C(C)(C)[C@@H](O)CC(=O)O1`, the GI50 with MDA-MB-435 was 0.00227 µM; with OVCAR-5 ovarian, 0.0488 µM; in the experiment on HCC-2998 colon it was 0.0244 µM; with IGROV1 ovarian, 0.068 µM; in the experiment on RPMI-8226 leukemia it was below 0.0106 µM; in the experiment on HL-60(TB) leukemia it was 0.0168 µM. Moreover, the GI50 in the experiment on UACC-62 melanoma is 0.0245 µM; in the experiment on SF-295 CNS it was 0.0369 µM; in the experiment on UACC-257 melanoma, 0.965 µM; in the experiment on RXF 393 renal, 0.032 µM. The TGI in the experiment with MDA-MB-435 was 0.00567 µM; in the experiment on OVCAR-5 ovarian, above 11.1 µM; in the experiment with HCC-2998 colon, 1.39 µM; in the experiment on IGROV1 ovarian it was above 11.1 µM; with RPMI-8226 leukemia, above 11.1 µM; in the experiment on HL-60(TB) leukemia, 2.68 µM. In addition, the TGI was above 6.85 µM in the experiment with UACC-62 melanoma, 1.39 µM in the experiment with SF-295 CNS, above 11.1 µM with UACC-257 melanoma and 0.379 µM in the experiment on RXF 393 renal.

In the case of `O=C1/C(=C/c2ccc(Cl)cc2)CCC/C1=C\c1ccc(Cl)cc1`, the GI50 in the experiment with MDA-MB-435 is 2.78 µM; in the experiment on OVCAR-5 ovarian, above 100 µM; with HCC-2998 colon, 1.75 µM; with IGROV1 ovarian, 4.13 µM; in the experiment with RPMI-8226 leukemia, 2.1 µM; in the experiment with HL-60(TB) leukemia, 3.56 µM. Also, the GI50 is 4.39 µM with UACC-62 melanoma, 3.83 µM in the experiment on SF-295 CNS, 4.17 µM with UACC-257 melanoma and 1.95 µM in the experiment with RXF 393 renal. Besides, the TGI in the experiment with MDA-MB-435 was 18.8 µM; in the experiment on OVCAR-5 ovarian, above 100 µM; in the experiment on HCC-2998 colon it was 3.19 µM; with IGROV1 ovarian, above 100 µM; in the experiment with RPMI-8226 leukemia, 6.32 µM; in the experiment on HL-60(TB) leukemia, above 100 µM. For the same compound, the TGI in the experiment on UACC-62 melanoma was above 100 µM; with SF-295 CNS, above 100 µM; in the experiment on UACC-257 melanoma it was above 100 µM; in the experiment with RXF 393 renal, 3.66 µM.

Take `C/C(O)=C(\C#N)C(=O)Nc1ccc(C(F)(F)F)cc1`: the GI50 in the experiment on MDA-MB-435 is 37.1 µM; with OVCAR-5 ovarian it was above 100 µM; in the experiment on HCC-2998 colon, 45.2 µM; in the experiment with IGROV1 ovarian, 28.4 µM; in the experiment with RPMI-8226 leukemia, 24.8 µM; with HL-60(TB) leukemia, 64.3 µM. Further, the figures for the GI50 in the experiment on UACC-62 melanoma, in the experiment on UACC-257 melanoma and in the experiment on RXF 393 renal were 15.6 µM, above 100 µM and 18.6 µM, respectively. In addition, the TGI in the experiment on MDA-MB-435, in the experiment on OVCAR-5 ovarian, with HCC-2998 colon, in the experiment with IGROV1 ovarian, in the experiment with RPMI-8226 leukemia and in the experiment with HL-60(TB) leukemia was above 100 µM in each case. The TGI in the experiment with UACC-62 melanoma, in the experiment on UACC-257 melanoma and in the experiment with RXF 393 renal was above 100 µM each time.

`Oc1c(Cl)cc(Cl)cc1C(c1cc(Cl)cc(Cl)c1O)C(Cl)(Cl)Cl`: the GI50 was 2.13 µM in the experiment on MDA-MB-435; 3.27 µM with OVCAR-5 ovarian; 1.91 µM in the experiment on HCC-2998 colon; 1.8 µM in the experiment with RPMI-8226 leukemia; 3.25 µM with HL-60(TB) leukemia; 0.73 µM with UACC-62 melanoma. Besides, the GI50 with SF-295 CNS is 1.35 µM; with UACC-257 melanoma, 3.33 µM; with RXF 393 renal, 2.38 µM. The TGI turned out to be 5.12 µM in the experiment with MDA-MB-435; 14.5 µM with OVCAR-5 ovarian; 5.08 µM in the experiment with HCC-2998 colon; 54.2 µM in the experiment with RPMI-8226 leukemia; 10.3 µM in the experiment with HL-60(TB) leukemia; 10.6 µM in the experiment with UACC-62 melanoma. In addition, the TGI in the experiment on SF-295 CNS amounted to 3.53 µM; in the experiment with UACC-257 melanoma it was 9.18 µM; in the experiment with RXF 393 renal, 6.66 µM.

As for `CN(CC(=O)Nc1nc2ccccc2[nH]1)S(=O)(=O)c1ccc(Cl)cc1`, the GI50 with MDA-MB-435 is above 100 µM; with OVCAR-5 ovarian, above 100 µM; in the experiment with HCC-2998 colon, above 100 µM; in the experiment with IGROV1 ovarian, 21 µM; with RPMI-8226 leukemia, above 100 µM; in the experiment with HL-60(TB) leukemia it was above 100 µM. Also, the results for the GI50 with UACC-62 melanoma, in the experiment with UACC-257 melanoma and in the experiment on RXF 393 renal were above 100 µM, above 100 µM and 13.4 µM, respectively. Also, the TGI with MDA-MB-435, with OVCAR-5 ovarian, with HCC-2998 colon, in the experiment with IGROV1 ovarian, in the experiment with RPMI-8226 leukemia and in the experiment on HL-60(TB) leukemia was above 100 µM in each case. Also, the TGI was above 100 µM in the experiment on UACC-62 melanoma, above 100 µM in the experiment with UACC-257 melanoma and 55.6 µM in the experiment with RXF 393 renal.

`NS(=O)(=O)c1ccc(N(/C=C/C(=O)C(F)(F)F)Cc2ccc(Cl)cc2)cc1`: the GI50 is 30.6 µM with MDA-MB-435; 28.7 µM in the experiment with OVCAR-5 ovarian; 18.1 µM in the experiment with HCC-2998 colon; 26.2 µM with RPMI-8226 leukemia; 39 µM in the experiment with HL-60(TB) leukemia; 20.3 µM with UACC-62 melanoma. In addition, the GI50 with SF-295 CNS is 35.1 µM; in the experiment on UACC-257 melanoma it was 24.1 µM; in the experiment on RXF 393 renal it was 16 µM. The TGI is 96.5 µM in the experiment with MDA-MB-435; above 100 µM with OVCAR-5 ovarian; 35.5 µM with HCC-2998 colon; 89.1 µM with RPMI-8226 leukemia; 78.3 µM in the experiment on HL-60(TB) leukemia; 45.3 µM in the experiment with UACC-62 melanoma. For the same compound, the TGI in the experiment on SF-295 CNS is above 100 µM; in the experiment on UACC-257 melanoma, 52.8 µM; in the experiment on RXF 393 renal, 47 µM.

With `N#Cc1cc(S(=O)(=O)Nc2nnc(-c3ccccc3)c(-c3ccccc3)n2)c(SCc2ccccc2)cc1Cl`, the GI50 was 21.2 µM in the experiment with MDA-MB-435; above 100 µM in the experiment with HCC-2998 colon; 29.7 µM with IGROV1 ovarian; 16.4 µM with RPMI-8226 leukemia; 19.9 µM with HL-60(TB) leukemia; 20.5 µM in the experiment with UACC-62 melanoma. For the same compound, the results for the GI50 in the experiment on SF-295 CNS, in the experiment on UACC-257 melanoma and in the experiment on RXF 393 renal were 24.8 µM, 24.2 µM and 6.31 µM, respectively. Further, the TGI in the experiment with MDA-MB-435 was 45.1 µM; with HCC-2998 colon, above 100 µM; with IGROV1 ovarian, 83.5 µM; in the experiment with RPMI-8226 leukemia, 51.9 µM; in the experiment with HL-60(TB) leukemia it was 44.8 µM; with UACC-62 melanoma, 48.7 µM. In addition, the results for the TGI with SF-295 CNS, in the experiment on UACC-257 melanoma and in the experiment on RXF 393 renal were 46.5 µM, 46.4 µM and 22.7 µM, respectively.
